Experimental data: patent US5215981A, “Polyether antibiotic MI215-NF3 substance, production process thereof, and agent for control of chicken coccidiosis” (Hokko Chemical Industry Co., Ltd., priority 1988, dated 1993)

Tested on: Eimeria tenella
Assay: Anticoccidial activity in chicken inoculated with Eimeria tenella oocysts
Format: in vivo
Settings: for Rate (%) of relative body weight gain / Survival rate (%): 7 days after infection; for Lesion scores: cecum, 7th day after infection; for ACI (Anticoccidial Index): ACI=(relative weight gain+survival rate)-(lesion scores+oocyst scores)
Protocol: The activity of MI215-NF3 substance for controlling chicken coccidiosis was tested as summarized below.
1. Newly-hatched chicken (male) were preliminarily raised for 1 week, and […] chicken were used in the test.
2. The body weights of the chicken were individually measured at the beginning of the test. To make up each test group, ten chicken were selected and alloted in each group so as to minimize variations among the test groups.
3. Chicken were orally inoculated with 5×10^4 oocysts of Eimeria tenella per chick through a stomach probe tube.
4. After the oocyst inoculation, each chick was allowed to take ad libitum a feed which had been prepared by mixing a predetermined amount of MI215-NF3 substance (sodium salt) with a special feed containing no anticoccidial agent. Incidentally, the chicken were also allowed to drink water ad libitum.
5. Up to the 7th day after the oocyst inoculation, the number of oocysts in feces from each chick and the state of the feces were observed everyday.
6. Each chick was anatomized on the 7th day after the infection. Anatomical procedures were as follows.
1) The body weight of each chick was measured.
2) Each chick was sacrificed by dislocation of neck cervical fracture.
3) Each chick was subjected to celiotomy and the cecum was enucleated. The cecum was visually inspected for any lesions on both outer and inner walls of cecum.
4) The cecum thus inspected was individually disintegrated in a homogenizer, whereby a cecum suspension was prepared. The number of oocysts in the suspension was counted.
5) Based on the results of the above inspections, the value of ACI (Anticoccidial Index) was determined in accordance with the evaluation method proposed by Merck & Co., Inc., U.S.A., namely, by the following equation:
ACI=(rate (%) of relative body weight gain+survival rate (%) of
chick)-(lesion scores+oocyst scores)
Upon determination of the above ACI value, the "rate of weight gain" of the chicken in each group of chicken during the test period for estimation of the drug efficacy and the "rate of relative body weight gain" used for the calculation of ACI were evaluated in accordance with the following equations: […]
______________________________________
Rate (%) of body weight gain = [(mean body weight of
chicken at the end of the test - mean body
weight of the chicken at the beginning of
the test) .div. mean body weight of the chicken
at the beginning of the test] × 100.
Rate (%) of relative body weight gain =
[(rate of body weight gain of the treated group
or an infected but non-treated group) .div. rate
of body weight gain of a non-infected and non-
On the other hand, the term "lesion scores" means a value which is obtained by evaluating, in terms of indexes, the results of visual inspection of lesions on an enucleated cecum sample. The term "oocyst scores" means a value which is obtained by evaluating, in terms of indexes, the number of oocysts actually counted. Details of the procedure for the determination of ACI values are described, for example, in the literature compiled by Kiyoshi Tsunoda, "Chicken Coccidiosis", pp 95-101, Chikusan Shuppan Sha (May, 1983).

CC[C@@]1([C@@H]2O[C@@H]([C@H]3O[C@@](O)(CO)[C@H](C)C[C@@H]3C)C[C@@H]2C)CC[C@H]([C@]2(C)CC[C@]3(C[C@H](O)[C@@H](C)[C@@H]([C@@H](C)[C@@H](OC)[C@H](C)C(=O)O)O3)O2)O1 [Monensin]
Oocyst scores (100 ppm in feed): 20
Rate (%) of relative body weight gain (100 ppm in feed): 96.13%
Survival rate (%) (100 ppm in feed): 100%
Lesion scores (100 ppm in feed): 32.0
ACI (Anticoccidial Index) (100 ppm in feed): 144.1

CC[C@@H](C(=O)[C@@H](C)[C@@H](O)[C@H](C)[C@@H]1O[C@@H]([C@@H](CC)C(=O)O)CC[C@@H]1C)[C@H]1O[C@]2(C=C[C@@H](O)[C@]3(CC[C@@](C)([C@H]4CC[C@](O)(CC)[C@H](C)O4)O3)O2)[C@H](C)C[C@@H]1C [Salinomycin, salinomycin]
Oocyst scores (50 ppm in feed): 10
Rate (%) of relative body weight gain (50 ppm in feed): 71.13%
Survival rate (%) (50 ppm in feed): 100%
Lesion scores (50 ppm in feed): 34.0
ACI (Anticoccidial Index) (50 ppm in feed): 127.1
